Results published in patent publication US5132414A, “Dideoxynucleoside-5'-phosphonoformic acid compounds” (Dana-Farber Cancer Institute, Inc., priority 1990, dated 1992).

Key:
HIV-1 [1] = experiment: Inhibition of HIV-1 replication in Jurkat cells (RT activity), drugs added 4 h before virus (prophylaxis model); type: cell-based; details: for IC95: 96 h, read-out: concentration needed to achieve the same degree of inhibition (>95% inhibition of RT activity); for IC50: read-out: 50% inhibitory concentration (IC50), RT activity in culture supernatants
Experimental: The final DMSO concentration in the medium was <0.1%. These solutions in cell growth medium were used in all of the biological tests described below.
In a second evaluation, the compound salt of Example 1, AZT, and PFA were compared as inhibitors of HIV-1 replication in Jurkat cells when added to the cultures 4 h before the virus (i.e., in a prophylaxis model). The drugs were present through the length of the experiment (4 days).

[2] = tested on: Rauscher murine leukemia virus (RLV); experiment: Plaque assay: inhibition of plaque formation by Rauscher murine leukemia virus in mouse fibroblast cultures; type: cell-based; details: for inhibition of plaque formation: added 4 hours before virus, 4 days
Description: FIG. 4A is a graph showing inhibition of plaque formation by a different retrovirus (a murine leukemia virus) in mouse fibroblast cultures;
(§1) For biological testing, a stock solution of the free acid of Example 1 was made up in DMSO and dispensed into RPMI 1640 cell growth medium to give the desired range of concentrations. The final DMSO concentration in the medium was <0.1%. These solutions in cell growth medium were used in all of the biological tests described below.
The compound of Example 1 as well as AZT and PFA were also tested in a plaque assay for the ability to inhibit plaque formation in mouse fibroblast cultures by Rauscher murine leukemia virus (RLV), a type C retrovirus; the results are shown in FIG. 4A. Drugs were added to the cultures 4 hours before the virus, and inhibition was measured at 4 days. The cytotoxicity of all the agents to non-infected fibroblasts was also determined and found to be <50% at concentrations of up to 10^-5 M as shown in FIG. 4B. […] When AZT alone was used at a concentration of only 10^-9 M there was no effect, but when AZT and PFA were combined, each at concentrations of 10^-9 M, there was almost 50% inhibition of plaque formation even though the PFA was not used in excess.

[3] = Inhibition of Jurkat cell growth; type: cell-based, human; details: human; at 10^-5 M; Jurkat cells; read-out: growth inhibition of host cells
Description: (§2) FIG. 2B is a graph showing inhibition of Jurkat cell growth under the same conditions as in FIG. 2A;
as §1
(§3) In a second evaluation, the compound salt of Example 1, AZT, and PFA were compared as inhibitors of HIV-1 replication in Jurkat cells when added to the cultures 4 h before the virus (i.e., in a prophylaxis model). The drugs were present through the length of the experiment (4 days). […] Thus, while there was an approximately four-log TI for AZT in this experiment, the TI for the compound of Example 1 could not actually be estimated because the IC50 for cell growth inhibition, extrapolated from the dose-response curve, was >10^-3 M.

[4] = tested on: simian immunodeficiency virus (SIV); experiment: Inhibition of SIV in cultured human lymphoblasts (CEM cells), RT activity; type: cell-based; details: CCRF-CEM, added 4 hours before virus, measured at 3 days, read-out: approximate IC50 for inhibition of RT activity in SIV-infected CEM cells
Description: (§4) FIG. 5A is a graph showing inhibition by AZT of retroviral propagation and of cell growth in cultured human lymphoblasts infected with simian immuno-deficiency virus;
(§5) FIG. 5B is a graph showing the results of using one embodiment of the invention in the same test as that of FIG. 5A.
as §1
(§6) The activities of AZT and of the compound of Example 1 against simian immunodeficiency virus (SIV) in cultured human lymphoblasts (CEM cells) were assayed; the results are shown in FIGS. 5A and 5B, respectively. The drugs were added to the culture 4 hours before the virus and inhibition was measured at 3 days.

[5] = tested on: simian immunodeficiency virus (SIV); experiment: Inhibition of SIV replication in monkey peripheral blood leukocytes (RT activity); type: cell-based
Description: (§7) FIG. 6A is a graph showing results of a test similar to that of FIG. 5A except that monkey peripheral blood leukocytes were used; and
(§8) FIG. 6B is a graph showing inhibition by one embodiment of the invention under the same conditions as in FIG. 5B.
as §1, §6

HIV-1 RT = target: T1, HIV-1 RT (Human immunodeficiency virus type 1 group M subtype B, UniProt P04585); experiment: Cell-free assay with purified HIV-1 RT; type: biochemical
T1 construct: purified HIV-1 RT
Description: as §1
To examine the question whether RT inhibition by the compound of Example 1 could by itself account for the antiretroviral effect in intact cells, the effect of the compound on RT activity was examined in a cell-free assay with purified HIV-1 RT. An IC50 value (ca. 50 μM) well in excess of the concentration needed to block viral replication was obtained. Therefore, it appears that metabolism is required in the action of the compound of Example 1 or that the compound has one or more targets other than RT in the cell.

[6] = Inhibition of growth of human peripheral blood leukocytes; type: cell-based; details: at 10^-4 M, H-PBLs, read-out: inhibition of PBL growth
Description: FIG. 3B is a graph showing inhibition of growth of human peripheral blood leukocytes;
as §1
(§9) The activities of the compound of Example 1, AZT, and PFA were also examined in cultured human peripheral blood leukocytes (H-PBLs) infected with HIV-1. […] In both PBLs and Jurkat cells, therefore, the antiviral potency of the compound of Example 1 resembled that of AZT, while its low cytotoxicity was more reminiscent of that of PFA.

HIV-1 [7] = experiment: Inhibition of HIV-1 replication in cultured human peripheral blood leukocytes; type: cell-based; details: Human immunodeficiency virus 1, Leukocyte; H-PBLs; added 4 hours before virus, measured at 4 days; read-out: 50% inhibition of viral replication
Description: FIG. 3A is a graph showing inhibition of HIV-1 replication in human peripheral blood leukocytes;
as §1, §9

[8] = tested on: monkey peripheral blood leukocytes (M-PBLs); experiment: Growth inhibition / toxicity to monkey peripheral blood leukocytes; type: cell-based; details: in words
Description: as §7, §8, §1, §6

[9] = Cytotoxicity in non-infected Jurkat cells, 4 days exposure; type: cell-based; details: human, up to 10^-4 M, read-out: decrease in cell viability
Experimental: as §1
(§10) The compound of Example 1 was tested initially for its ability to inhibit HIV-1 replication in Jurkat cells, a CD4+ human T-lymphocyte line commonly used for this purpose. Reverse transcriptase (RT) activity in the supernatant from the infected cells was used as a measure of viral replication, and the compound was added to the cultures at time zero or 4 h post-infection. Parallel cytotoxicity assays were performed in non-infected Jurkat cells to assess therapeutic selectivity.

Jurkat cells = experiment: Inhibition of Jurkat cell growth; type: cell-based, human; details: Homo sapiens, Jurkat, read-out: IC50 for cell growth inhibition
Description: as §2, §1, §3

CEM cells = experiment: Inhibition of CEM cell growth; type: cell-based, human; details: for IC50: Homo sapiens, CCRF-CEM, 72 h, read-out: approximate IC50 for CEM cell growth
Description: as §4, §5, §1, §6

HIV-1 [10] = experiment: Inhibition of HIV-1 replication in Jurkat cells (RT activity in supernatant), compound added at time zero or 4 h post-infection; type: cell-based; details: Human immunodeficiency virus 1, compound added at time zero or 4 h post-infection, read-out: 50% inhibition of RT activity relative to non-treated HIV-infected cells
Experimental: as §1, §10

[11] = Human immunodeficiency virus 1, Jurkat

| Compound | IC95 (HIV-1 [1]; [11]) [µM] | IC50 (HIV-1 [1]; [11]) [µM] | inhibition at 96 h, 10 µM [3] [%] | IC50 [4] [µM] | inhibition at 100 µM [6] [%] | IC50 (HIV-1 [7]) [µM] | inhibition of plaque formation ([2]; at 10^-7 M) | IC50 (CEM cells) [µM] | further results |
| --- | --- | --- | --- | --- | --- | --- | --- | --- | --- |
| O=C(O)P(=O)(O)O [PFA, phosphonoformic acid] | 1000 | 10 | 30 |  |  |  |  |  | inhibition of plaque formation ([2]; until the concentration reached 10^-4 M): no appreciable effect |
| CCOC(=O)P(=O)(O)OC[C@H]1O[C@@H](n2cc(C)c(=O)[nH]c2=O)C[C@@H]1N=[N+]=[N-] [Example 1, 3'-Azido-3'-deoxy-5'-[P-(ethoxycarbonyl)-P-Hydroxyphosphinyl]thymidine] |  | ~0.002 | 20 | ~0.01 | 20 | ~0.01 | inactive | > 100 | IC50 ([5]; Simian immunodeficiency virus, Leukocyte, in Primates, M-PBLs, added 4 hours before virus, read-out: 50% inhibition of RT activity (SIV replication)): 0.1 µM; inhibition at 0.005 µM (HIV-1 [1]; Human immunodeficiency virus 1, Jurkat, read-out: inhibition of RT activity): > 95%; increase in potency relative to AZT (HIV-1 [1]; Jurkat cells, HIV-1, IC50 comparison with AZT): roughly fivefold; IC50 (HIV-1 RT): ~50 µM; toxicity to the host cell relative to AZT [8]: considerably lower than with AZT; inhibition of plaque formation ([2]; at 10^-5 M): almost complete inhibition; effectiveness in the RLV system relative to AZT or a 1:1 combination of AZT and PFA ([2]; comparison in words): less effective than AZT or a 1:1 combination of AZT and PFA; cytotoxicity at 96 h, 100 µM [9]: < 10%; IC50 (Jurkat cells): > 1000 µM; times less toxic to the host cells than AZT (CEM cells; CEM cells, relative to AZT): at least 200 times; IC50 (HIV-1 [10]): ~0.5 µM |
| Cc1cn([C@H]2C[C@H](N=[N+]=[N-])[C@@H](CO)O2)c(=O)[nH]c1=O [AZT, 3'-azidothymidine, reference compound] | 100 | 0.01 | 50 to 60 | ~0.005 | 80 | ~0.01 | Complete inhibition | ~2 | concentrations required for inhibition of SIV replication in M-PBLs (versus CEM cells) ([5]; in words): required higher AZT concentrations; concentrations required for inhibition of cell growth in M-PBLs (versus CEM cells) [8]: required higher AZT concentrations; inhibition of plaque formation ([2]; at 10^-9 M): no effect |
